Where two headings read alike, the source gives them in different places.
Columns and labels:
[1] = cited from earlier work
[2] = 6 and 12 mg twice daily, IR formulation, background methotrexate; cited from earlier work
[3] = format: in vivo, human (healthy subjects); details: for AUC(0-t) / AUC(0-inf) / Cmax / half-life: human, plasma, oral; for AUC(0-t): AUCt
[4] = cited from earlier work; remark: listed apart in the source
[5] = format: in vivo; details: human, not told, po
CYP2D6 = details: in vitro; cited from earlier work
cytochrome P450 (CYP) 3A = details: in vitro; cited from earlier work
Multiple-dose = format: in vivo, human (healthy subjects); details: for AUC(0-t) / Cmax / half-life at 7 days: human, plasma, oral; for AUC(0-t): AUC0–24, steady state (day 7); for Cmax: steady state (day 7); for half-life at 7 days: t1/2, steady state; for Cmin: steady state (day 7, 24-hour period)
[6] = cited from earlier work; remark: listed apart in the source
[7] = 12 mg, single 12 mg IR, fasting, n = 11, mean ± SD
[8] = 15 mg, single 15 mg ER, fasting, n = 11, mean ± SD
[9] = 24 mg, single 24 mg IR, fasting, n = 12, mean ± SD
[10] = 30 mg, single 30 mg ER after high-fat breakfast, n = 12, mean ± SD
[11] = 30 mg, single 30 mg ER, fasting, n = 12, mean ± SD
[12] = 6 mg, 6 mg twice-daily IR, fasting, n = 11, mean ± SD
[13] = 12 mg, 12 mg twice-daily IR, fasting, n = 11, mean ± SD
[14] = 15 mg, 15 mg once-daily ER, fasting, n = 12, mean ± SD
[15] = 15 mg, 15 mg once-daily ER, nonfasting, n = 12, mean ± SD
[16] = 30 mg, 30 mg once-daily ER, fasting, n = 11, mean ± SD
[17] = 30 mg, 30 mg once-daily ER, nonfasting, n = 12, mean ± SD

Q: For `CC[C@@H]1CN(C(=O)NCC(F)(F)F)C[C@@H]1c1cnc2cnc3[nH]ccc3n12` [Upadacitinib], which “effect of CYP2D6 metabolic phenotype on apparent oral clearance” value [1] is on record?
A: no effect

Q: And the “residual error in upadacitinib concentrations” value [1]?
A: 31%

Q: And the “intersubject variability of apparent central volume of distribution” value ([1]; healthy subjects)?
A: 14%

Q: What about the “intersubject variability of apparent oral clearance” value ([1]; healthy subjects) of the same molecule?
A: 16%

Q: And the “higher AUC compared with subjects with normal renal function” value ([1]; mild renal impairment, estimated)?
A: 16%

Q: What about the “higher AUC compared with subjects with normal renal function” value ([1]; moderate renal impairment, estimated) of the same molecule?
A: 32%

Q: And the “apparent oral clearance lower in RA patients compared with healthy subjects” value ([1]; population pharmacokinetic analyses, estimated)?
A: 24%

Q: What about the “intersubject variability of apparent central volume of distribution” value ([1]; subjects with RA) of the same molecule?
A: 27%

Q: And the “intersubject variability of apparent oral clearance” value ([1]; subjects with RA)?
A: 26%

Q: What about the “efficacy in subjects with RA” value [2] of the same molecule?
A: maximal efficacy

Q: And the “increase in AUC and Cmax after a high-fat meal compared with fasting” value ([3]; ER formulation)?
A: ~20%

Q: What about the AUC(0-t) [3, 7] of the same molecule?
A: 231 ± 34.5 ng·h/mL

Q: What about the AUC(0-inf) [3, 7] of the same molecule?
A: 234 ± 34.6 ng·h/mL

Q: What about the Cmax [3, 7] of the same molecule?
A: 64.6 ± 10.3 ng/mL

Q: What about the half-life ([3]; 12 mg, t1/2, single 12 mg IR, fasting, n = 11, mean ± SD) of the same molecule?
A: 18.3 ± 13.3 h

Q: What about the AUC(0-t) [3, 8] of the same molecule?
A: 227 ± 60 ng·h/mL

Q: And the AUC(0-inf) [3, 8]?
A: 242 ± 63.6 ng·h/mL

Q: What about the half-life ([3]; 15 mg, t1/2, single 15 mg ER, fasting, n = 11, mean ± SD) of the same molecule?
A: 21.9 ± 23.1 h

Q: And the AUC(0-inf) [3, 9]?
A: 524 ± 133 ng·h/mL

Q: What about the Cmax [3, 9] of the same molecule?
A: 176 ± 65.6 ng/mL

Q: And the half-life ([3]; 24 mg, t1/2, single 24 mg IR, fasting, n = 12, mean ± SD)?
A: 15.3 ± 13.6 h

Q: What about the AUC(0-t) [3, 10] of the same molecule?
A: 564 ± 145 ng·h/mL

Q: What about the AUC(0-t) [3, 11] of the same molecule?
A: 477 ± 130 ng·h/mL

Q: What about the AUC(0-inf) [3, 11] of the same molecule?
A: 491 ± 133 ng·h/mL

Q: And the Cmax [3, 10]?
A: 76.8 ± 29.6 ng/mL

Q: And the Cmax [3, 11]?
A: 63.7 ± 21.1 ng/mL

Q: What about the half-life ([3]; 30 mg, t1/2, single 30 mg ER after high-fat breakfast, n = 12, mean ± SD) of the same molecule?
A: 15.9 ± 11 h

Q: What about the half-life ([3]; 30 mg, t1/2, single 30 mg ER, fasting, n = 12, mean ± SD) of the same molecule?
A: 18.1 ± 14.5 h

Q: What about the “dose eliminated unchanged in urine” value ([4]; IR formulation) of the same molecule?
A: approximately 20%

Q: What about the “time to maximum plasma concentration” value ([4]; IR formulation) of the same molecule?
A: ≤ 2 h

Q: And the accumulation in plasma ([4]; twice-daily dosing of the IR formulation)?
A: no significant accumulation

Q: And the bioavailability [5]?
A: 70 to 80%

Q: What about the “contribution of CYP2D6 to metabolism” value (CYP2D6) of the same molecule?
A: minor contribution

Q: What about the “substrate of CYP3A” value (cytochrome P450 (CYP) 3A) of the same molecule?
A: nonsensitive substrate

Q: What about the “difference of central values for Cmax and Cmin, ER once daily vs IR twice daily” value (Multiple-dose; 15 and 30 mg once daily vs 6 and 12 mg twice daily, fasting, steady state) of the same molecule?
A: ≤ 13%

Q: What about the AUC(0-t) (Multiple-dose; [12]) of the same molecule?
A: 288 ± 63.5 ng·h/mL

Q: And the Cmax (Multiple-dose; [12])?
A: 33.9 ± 8.8 ng/mL

Q: And the half-life at 7 days (Multiple-dose; [12])?
A: 24.5 ± 18.1 h

Q: What about the AUC(0-t) (Multiple-dose; [13]) of the same molecule?
A: 534 ± 97.8 ng·h/mL

Q: What about the Cmax (Multiple-dose; [13]) of the same molecule?
A: 73.9 ± 14.2 ng/mL

Q: And the half-life at 7 days (Multiple-dose; [13])?
A: 11.5 ± 9.2 h

Q: What about the AUC(0-t) (Multiple-dose; [14]) of the same molecule?
A: 279 ± 71.4 ng·h/mL

Q: What about the AUC(0-t) (Multiple-dose; [15]) of the same molecule?
A: 317 ± 68.1 ng·h/mL

Q: And the Cmax (Multiple-dose; [14])?
A: 31.9 ± 11.2 ng/mL

Q: And the Cmax (Multiple-dose; [15])?
A: 36 ± 8.8 ng/mL

Q: And the half-life at 7 days (Multiple-dose; [14])?
A: 16.9 ± 12 h

Q: What about the half-life at 7 days (Multiple-dose; [15]) of the same molecule?
A: 15.1 ± 10.1 h

Q: What about the AUC(0-t) (Multiple-dose; [16]) of the same molecule?
A: 525 ± 123 ng·h/mL

Q: And the AUC(0-t) (Multiple-dose; [17])?
A: 582 ± 172 ng·h/mL

Q: What about the Cmax (Multiple-dose; [16]) of the same molecule?
A: 68.2 ± 20.5 ng/mL

Q: And the Cmax (Multiple-dose; [17])?
A: 79.5 ± 31.8 ng/mL

Q: And the half-life at 7 days (Multiple-dose; [16])?
A: 22.9 ± 21.1 h

Q: What about the “steady state achieved by day” value (Multiple-dose; once-daily dosing of ER formulation, predose concentrations) of the same molecule?
A: ≤ 4 days

Q: What about the Cmin (Multiple-dose; 6 mg twice-daily IR, fasting, n = 11, mean ± SD) of the same molecule?
A: 2.7 ± 0.6

Q: And the Cmin (Multiple-dose; 12 mg twice-daily IR, fasting, n = 11, mean ± SD)?
A: 3.8 ± 2.2

Q: What about the Cmin (Multiple-dose; 15 mg once-daily ER, fasting, n = 12, mean ± SD) of the same molecule?
A: 3.1 ± 1.1

Q: What about the Cmin (Multiple-dose; 15 mg once-daily ER, nonfasting, n = 12, mean ± SD) of the same molecule?
A: 2.8 ± 1.2

Q: What about the Cmin (Multiple-dose; 30 mg once-daily ER, fasting, n = 11, mean ± SD) of the same molecule?
A: 3.8 ± 1.6

Q: What about the Cmin (Multiple-dose; 30 mg once-daily ER, nonfasting, n = 12, mean ± SD) of the same molecule?
A: 4.6 ± 1.8

Q: And the “decrease in upadacitinib AUC with rifampin” value ([6]; CYP inducer rifampin)?
A: 60%

Q: What about the “decrease of Cmax by food” value ([6]; IR formulation) of the same molecule?
A: approximately 20%

Q: And the “impact of food on AUC” value ([6]; IR formulation)?
A: no impact

Q: What about the “increase in upadacitinib AUC with ketoconazole” value ([6]; strong CYP3A inhibitor ketoconazole) of the same molecule?
A: 75%

Reference: article PMC6585649 (Clinical Pharmacology in Drug Development, 2018)
